Molecules are shown by their SMILES.

Data set [1] relates to 786-O cells (clear cell renal cell carcinoma). Nature of the data set: Cytotoxicity IC50, MTS assay, 786-O cells. It counts as cell-based. Conditions: Homo sapiens, 786-0, 72 hours after treatment, read-out: IC-50 values (in nM), 786-O. The procedure:
(§1) Specifically, the F7-loaded HDL NPs were tested for cytoxicity against two CTCL cell lines (HH and Hut78), a clear cell renal cell carcinoma cell line (786-O), an anaplastic large cell lymphoma (ALCL) cell line (SR-786), a breast adenocarcinoma cell line (MDA MB 231), a T-cell lymphoma cell line (Jurkat), a myeloma cell line (U266B1), and six prostate cancer cell lines (PC-3, Du-145, CWRR1 WT (wild-type), CWRR1 EnzR (Enzalutamide resistant), LnCap WT (wild type), and LnCap EnzR (Enzalutamide resistant)). The HH and HuT78 cell lines are SR-B1 positive and express p38γ. The SR-786, 786-O, and MDA MB 231 cell lines are also known to be SR-B1 positive. […] The PC-3 and Du-145 cell lines are SR-B1 positive, androgen receptor negative and PTEN null. The CWRR1 WT cell line is SR-B1 positive, androgen receptor positive and PTEN wild type. The CWRR1 EnzR, which is also SR-B1 positive, androgen receptor positive and PTEN wild type, is a prostate cancer cell line derived from patient with castration recurrent disease that is resistant to enzalutamide (a commonly used therapy for castration-resistant prostate cancer patients). The LnCap WT cell line is SR-B1 positive, androgen receptor positive and PTEN null. The LnCap EnzR, which is also SR-B1 positive, androgen receptor positive and PTEN null, is a prostate cancer cell line derived from a lymph node metastasis that is resistant to enzalutamide. […]
A general note: Tetrazolium assays rely on reduction of a dye to a coloured formazan, in cell work by metabolically active cells.

Another data set deals with HepG2 cells. As to the kind of experiment: Cell-based toxicity screen, HepG2 cells, MTS viability. Conditions: F7 1 μM for 2 hrs, washed, 72 hours, MTS assay.
Data set [2] concerns LnCap WT cells (prostate cancer). As to the kind of experiment: Cytotoxicity IC50, MTS assay, LnCap WT cells. The format is cell-based. Conditions: Homo sapiens, 72 hours after treatment, read-out: IC-50 values (in nM), LnCap WT. The protocol:
as §1

For data set [3], the system named is ACHN cells (renal cancer). As to the kind of experiment: Cytotoxicity IC50 in renal cancer cell line ACHN. It counts as cell-based. Conditions: Homo sapiens. The procedure:
(§2) A database analysis was performed and a survival curve for the renal cancer was found showing a separation (p=0.000084) among summarized 877 renal cancer patients by p38γ gene expression level (high vs low). […] All 8 renal cancer cell lines have higher p38γ protein expression level than that of normal HK2 renal cells by western blot experiments (FIG. 3B).

The subject of the next data set is U266B1 cells (myeloma). Nature of the data set: Cytotoxicity IC50, MTS assay, U266B1 cells. The format is cell-based. Conditions: U266B1 cells (SR-B1 negative), 72 hours after treatment, read-out: IC-50 values (in nM), U266B1. The protocol:
as §1

Data set [4] concerns Du-145 cells (prostate cancer). As to the kind of experiment: Cytotoxicity IC50, MTS assay, Du-145 cells. The format is cell-based. Conditions: Homo sapiens, 72 hours after treatment, read-out: IC-50 values (in nM), Du-145. The protocol: as §1
Data set [5] has as its system HH cells (cutaneous T cell lymphoma). As to the kind of experiment: Cytotoxicity IC50, MTS assay, HH cells. Conditions: Homo sapiens, 72 hours after treatment, read-out: IC-50 values (in nM), HH. It counts as cell-based. The procedure:
as §1

Data set [6] relates to SR-786 cells (anaplastic large cell lymphoma). Nature of the data set: Cytotoxicity IC50, MTS assay, SR-786 cells. The format is cell-based. Conditions: 72 hours after treatment, read-out: IC-50 values (in nM), SR-786. The protocol:
as §1

Data set [7] deals with PC-3 cells (prostate cancer). As to the kind of experiment: Cytotoxicity IC50, MTS assay, PC-3 cells. Conditions: Homo sapiens, 72 hours after treatment, read-out: IC-50 values (in nM), PC-3. The format is cell-based. The protocol: as §1
Another data set relates to Hut78 cells. As to the kind of experiment: Cytotoxic impact of F7 on Hut78 cells (screening). The format is cell-based. Conditions: Homo sapiens. From the text: Cutaneous T cell lymphoma (CTCL) is a disfiguring and aggressive cancer. For patients with advanced disease, current therapies are inadequate, and outcome is poor. Incomplete understanding of CTCL molecular regulators has limited development of effective targeted therapies. One candidate regulator is p38gamma (p38γ), a mitogen-activated protein kinase downstream from the T cell receptor that is crucial for T cell activity and growth. […] In addition, only p38γ has been identified as essential protein for CTCL growth among the four p38 isoforms by gene knockdown experiments, which makes p38γ an ideal target for the therapeutic drug development in this particular T cell lymphoma.

Data set [8] deals with HH cell line (SR-B1 positive). Nature of the data set: 2 hr pulse treatment, MTS viability, SR-B1 positive HH cell line. It counts as cell-based. Conditions: free F7 250 nM or 2.5 μM for 2 hrs, washed, 72 hours, MTS assay. The protocol: (§3) Following treatment, the cells were washed with fresh media and plated into 96-well plates. The cells were then incubated for 72 hours prior to viability assay (MTS assay).

For data set [9], the system named is LnCap EnzR cells (prostate cancer, Enzalutamide resistant). As to the kind of experiment: Cytotoxicity IC50, MTS assay, LnCap EnzR cells. The format is cell-based. Conditions: Homo sapiens, 72 hours after treatment, read-out: IC-50 values (in nM), LnCap EnzR. The protocol: as §1
Data set [10] relates to HuT78 cells (cutaneous T cell lymphoma). Nature of the data set: Cytotoxicity IC50, MTS assay, HuT78 cells. It counts as cell-based. Conditions: Homo sapiens, 72 hours after treatment, read-out: IC-50 values (in nM), HuT78. The protocol:
as §1

Data set [11] deals with Jurkat cells (T-cell lymphoma). As to the kind of experiment: Cytotoxicity IC50, MTS assay, Jurkat cells. It counts as cell-based. Conditions: Homo sapiens, Jurkat cells (SR-B1 negative), 72 hours after treatment, read-out: IC-50 values (in nM), Jurkat. The protocol:
as §1

The subject of data set [12] is CWRR1 EnzR cells (prostate cancer, Enzalutamide resistant). Nature of the data set: Cytotoxicity IC50, MTS assay, CWRR1 EnzR cells. Conditions: 72 hours after treatment, read-out: IC-50 values (in nM), CWRR1 EnzR. It counts as cell-based. The protocol: as §1
Data set [13] deals with MDA MB 231 cells (breast adenocarcinoma). Nature of the data set: Cytotoxicity IC50, MTS assay, MDA MB 231 cells. The format is cell-based. Conditions: Homo sapiens, 72 hours after treatment, read-out: IC-50 values (in nM), MDA MB 231. The procedure: as §1
For a further data set, the system named is 780 cells (renal cancer). As to the kind of experiment: Cytotoxicity IC50 in renal cancer cell line 780. The format is cell-based. The protocol:
as §2

For data set [14], the system named is U266B1 cell line (SR-B1 negative). Nature of the data set: 2 hr pulse treatment, MTS viability, SR-B1 negative U266B1 cell line. It counts as cell-based. Conditions: free F7 250 nM or 2.5 μM for 2 hrs, washed, 72 hours, MTS assay. The procedure:
as §3

In data set [15] the test system is CWRR1 WT cells (prostate cancer). As to the kind of experiment: Cytotoxicity IC50, MTS assay, CWRR1 WT cells. It counts as cell-based. Conditions: 72 hours after treatment, read-out: IC-50 values (in nM), CWRR1 WT. The procedure: as §1

As to `Cc1ccc([N+](=O)[O-])cc1S(=O)(=O)N(C)/N=C/c1cnc2ccc(Br)cn12.Cl` [F7, PIK75], the IC50 is 283 nM in data set [1]; 53 nM in [2]; 17 nM in data set [3]; 44.1 nM in the data set with U266B1 cells (myeloma); 84.7 nM in data set [4]; 41.3 nM in data set [5]. The IC50 came to 12.6 nM in data set [6]; 28.1 nM in data set [7]; 33 nM in the data set with Hut78 cells; 75.5 nM in [9]; 45.6 nM in [10]; 116 nM in data set [11]. Also, the IC50 stood at 24.7 nM in data set [12], 688 nM in [13], 33 nM in the data set with 780 cells (renal cancer) and 15.9 nM in data set [15]. For the same compound, the “cytotoxicity, HepG2 cells, free F7” value in the data set on HepG2 cells is “mild levels of cytotoxicity”. The “cytotoxicity, HH cell line, free F7” value in [8] is “unable to cause cytotoxicity”. The “cytotoxicity, U266B1 cell line, free F7” value in data set [14] was “unable to cause cytotoxicity”.
